Converted amounts (≈) assume the structure as drawn.
How the values were obtained:
[1] = tested on: NCI H69 cells; experiment: CellTiter-Glo cell viability assay (cytotoxicity), 8 days; format: cell-based; details: Homo sapiens, 192 h, full growth media
Protocol: The experiment tested pentamidine, Compounds 1-6 in full growth media for 8 days. NCI H69 cells were initially treated with the test compounds on Day 0, and the cells were then replenished with fresh compound dilutions on Day 3. Pentamidine and Compound 1 were tested at 9 concentration points: 100 μM, 33.33 μM, 11.11 μM, 3.70 μM, 1.23 μM, […], 0.05 μM, and 0.02 μM (final DMSO concentration=0.5%). The raw data values from the CellTiter-Glo™ cell viability assay expressed in relative luminescence units were normalized to the vehicle for each individual plate, and any reduction in luminescence indicated a decrease in viability (%). The data was analyzed in GraphPad PRISM using a non-linear sigmoidal plot with variable slope (asymmetric four-point […]), and an IC50 value for each compound was generated based on the normalized dose-response curves and shown in Table 1.

[2] = tested on: A. baumannii ATCC 17978; experiment: Checkerboard assay with novobiocin (FIGS. 2, 3, 5, 6); format: cell-based, Acinetobacter baumannii; details: for MIC: Acinetobacter baumannii, ATCC17978, substance alone
Excerpt: Novobiocin is an anti-staphylococcal drug, but with limited use. The oral form of novobiocin drug has since been withdrawn from the market due to lack of efficacy. This antibiotic is often used to treat Staphylococcus aureus infection, particularly methicillin resistant S. aureus “MRSA”.

[3] = tested on: S. aureus ATCC 27660; experiment: MIC assay against gram positive S. aureus; format: cell-based; details: Staphylococcus aureus, ATCC27660
Protocol: (§1) Then the compound stocks were serially 2-fold diluted in a v-bottom 96-well plate to make 100-fold working solutions. One day before the test, −80° C. glycerol stock of S. aureus strains were streaked on cation-adjusted Mueller-Hinton agar (CAMHA) plates. On the day of test, fresh bacterial colonies were suspended into sterile saline to an OD600 nm of ˜0.1 (equivalent to 0.5 McFarland). The bacterial suspension was firstly 20-fold followed by 50-fold diluted in cation-adjusted Mueller-Hinton broth (CAMHB) plates to 1×10^6 CFU/PO. 198 ul of the inoculum was added into the round-bottom 96-well plates prefilled with 2 ul of 100-fold compound working solutions. After incubating at 35 +/−2° C. in ambient atmosphere for 18-24 h, MIC was recorded as the lowest concentration under which no visible bacterial growth was observed.

[4] = tested on: S. aureus ATCC 43300; experiment: MIC assay against gram positive S. aureus; format: cell-based; details: Staphylococcus aureus, ATCC43300
Protocol: as §1

[5] = tested on: Serratia marcescens (ATCC 13880); experiment: Checkerboard/MIC assay with rifampicin; format: cell-based; details: ATCC13880, substance alone
Excerpt: (§2) The 17 test strains/isolates were: (1) Serratia marcescens (ATCC 13880); (2) Salmonella typhimurium (ATCC 13311); (3) Salmonella choleraesuis (ATCC 10708); (4) Acinetobacter baumannii (ATCC BAA-1605); (5) A. baumannii (ATCC 17978); (6) A. baumannii (FDA-CDC AR-BANK#0088); (7) Citrobacter freundii (ATCC 8090); (8) Pseudomonas aeruginosa (BCCM 27647); (9) P. aeruginosa (BCCM 27648); (10) Escherichia coli (ATCC 25922); (11) E. coli (ATCC 10536); (12) Stenotrophomonas maltophilia (ATCC 13637); (13) Enterobacter cloacae (ATCC BAA-1143); (14) E. cloacae (ATCC 13047); (15) E. aerogenes (ATCC 13048); (16) Klebsiella pneumoniae (NCTC 13438); and (17) Klebsiella pneumoniae (FDA-CDC AR-BANK#0160). These bacterial strains were obtained from the American Type Culture Collection (ATCC, Rockville, MD, USA); Belgian Coordinated Collections of Microorganisms; The Culture Collections of Public Health England, UK; and FDA-CDC anticimrobial Resistance Isolate Bank, USA, and cryopreserved as single-use frozen working stock cultures which were stored at −80° C.
(§3) The 17 test strains were grown on nutrient agar or tryptic soy agar (TSA) medium as below. Colonies were suspended in phosphate buffered saline (PBS) pH 7.4. The absorbance of the bacterial suspension was measured with a spectrophotometer at OD620nm, and then the suspension was adjusted to 1-2×10^8 CFU/mL in PBS. The adjusted suspension was further diluted 1:500 in cation-adjusted Mueller-Hinton Broth. Each well contained approximately 5×10^5 CFU/mL. […] The testing inoculum was prepared within minutes before adding to wells of the test plate.
(§4) Compound 3 was tested in 8 points by two-fold serial titrations from 100 to 0.78 μg/mL. […] Assay plates were incubated and MIC endpoints were read as complete inhibition of visual growth. The checkerboard combination analysis was performed following the MIC testing protocol to identify potential synergistic, indifferent or antagonistic interactions. The analysis also included each test substance alone at the same concentration ranges.
(§5) FIC (Fraction Inhibitory Concentration) and FIC Index (FICI) values for each test condition and the average of FICI values of all pairwise combinations were calculated to determine if synergy or antagonism existed between the two substances. The FIC index was determined by calculating the sum of the ratios of MICs (minimum inhibitory concentrations) for both substances. […] Synergy is defined as the FICI (Σ)≤0.5; additivity or indifference are defined as the FICI (Σ)>0.5 to ≤4; antagonism is defined as the FICI (Σ)>4. The two fold of highest test article concentration was used for FIC value calculations in the circumstances where MIC values were greater than the highest test article concentration.

[6] = tested on: E. cloacae (ATCC 13047); experiment: Checkerboard/MIC assay with rifampicin; format: cell-based; details: ATCC13047; substance alone; Enterobacter cloacae ATCC-13047
Excerpt: as §2, §3, §4, §5

[7] = tested on: Salmonella choleraesuis (ATCC 10708); experiment: Checkerboard/MIC assay with rifampicin; format: cell-based; details: Salmonella enterica
Excerpt: as §2, §3, §4, §5

[8] = tested on: Klebsiella pneumoniae (NCTC 13438); experiment: Checkerboard/MIC assay with rifampicin; format: cell-based; details: NCTC13438, substance alone
Excerpt: as §2, §3, §4, §5

[9] = tested on: Stenotrophomonas maltophilia (ATCC 13637); experiment: Checkerboard/MIC assay with rifampicin; format: cell-based; details: ATCC13637, substance alone
Excerpt: as §2, §3, §4, §5

[10] = tested on: E. coli (ATCC 10536); experiment: Checkerboard/MIC assay with rifampicin; format: cell-based; details: ATCC10536; substance alone; Escherichia coli ATCC 10536
Excerpt: as §2, §3, §4, §5

[11] = tested on: Klebsiella pneumoniae (FDA-CDC AR-BANK#0160); experiment: Checkerboard/MIC assay with rifampicin; format: cell-based; details: substance alone; Klebsiella pneumoniae AR-BANK#0160
Excerpt: as §2, §3, §4, §5

[12] = tested on: A. baumannii (FDA-CDC AR-BANK#0088); experiment: Checkerboard/MIC assay with rifampicin; format: cell-based; details: substance alone; Acinetobacter baumannii AR-BANK 0088
Excerpt: as §2, §3, §4, §5

[13] = tested on: E. aerogenes (ATCC 13048); experiment: Checkerboard/MIC assay with rifampicin; format: cell-based; details: Klebsiella aerogenes, ATCC13048; substance alone; Enterobacter aerogenes ATCC-13048
Excerpt: as §2, §3, §4, §5

[14] = tested on: Salmonella typhimurium (ATCC 13311); experiment: Checkerboard/MIC assay with rifampicin; format: cell-based; details: Salmonella enterica; substance alone; Salmonella typhimurium ATCC13311
Excerpt: as §2, §3, §4, §5

[15] = tested on: Citrobacter freundii (ATCC 8090); experiment: Checkerboard/MIC assay with rifampicin; format: cell-based; details: ATCC8090, substance alone
Excerpt: as §2, §3, §4, §5

[16] = tested on: Escherichia coli (ATCC 25922); experiment: Checkerboard/MIC assay with rifampicin; format: cell-based; details: ATCC25922, substance alone
Excerpt: as §2, §3, §4, §5

[17] = tested on: Pseudomonas aeruginosa (BCCM 27647); experiment: Checkerboard/MIC assay with rifampicin; format: cell-based; details: substance alone; Pseudomonas aeruginosa BCCM27647
Excerpt: as §2, §3, §4, §5

[18] = tested on: P. aeruginosa (BCCM 27648); experiment: Checkerboard/MIC assay with rifampicin; format: cell-based; details: substance alone; Pseudomonas aeruginosa BCCM27648
Excerpt: as §2, §3, §4, §5

[19] = tested on: Acinetobacter baumannii (ATCC BAA-1605); experiment: Checkerboard/MIC assay with rifampicin; format: cell-based; details: substance alone; Acinetobacter baumannii BAA-1605
Excerpt: as §2, §3, §4, §5

[20] = tested on: A. baumannii (ATCC 17978); experiment: Checkerboard/MIC assay with rifampicin; format: cell-based; details: ATCC17978; substance alone; Acinetobacter baumannii ATCC 17978
Excerpt: as §2, §3, §4, §5

[21] = tested on: Enterobacter cloacae (ATCC BAA-1143); experiment: Checkerboard/MIC assay with rifampicin; format: cell-based; details: substance alone; Enterobacter cloacae BAA-1143
Excerpt: as §2, §3, §4, §5

For `N=C(N)c1cccc(CCCCCCCc2cccc(C(=N)N)c2)c1` [Compound 1, 3,3′-(heptane-1,7-diyl)dibenzimidamide], the IC50 [1] was 0.31 µM, the “synergistic effect with novobiocin” value [2] was “clear synergistic effects” and the “synergy with novobiocin as compared to pentamidine with novobiocin” value [2] was “superior synergy”. The MIC [2] was 149 µM.

Work on `N=C(N)c1ccc(CC[C@@H]2CCC[C@@H](CCc3ccc(C(=N)N)cc3)C2)cc1` [Compound 4, 4,4′-(2,2′-((1R,3R)-cyclohexane-1,3-diyl)bis(ethane-2,1-diyl))dibenzimidamide] yielded an IC50 [1] of 0.75 µM.

`N=C(N)c1ccc(CC[C@@H]2CCC[C@H](CCc3ccc(C4CCNC4)cc3)C2)cc1` (stereo partly drawn) [Compound 5, 4-(2-((1S,3R)-3-(4-(pyrrolidin-3-yl)phenethyl)cyclohexyl)ethyl)benzimidamide] showed an MIC [3] of 8 µg/mL (≈ 19.8 µM), an MIC [4] of 8 µg/mL (≈ 19.8 µM) and an IC50 [1] of 1.46 µM.

`N=C(N)c1cccc(CC[C@H]2CCC[C@@H](CCc3cccc(C(=N)N)c3)C2)c1` [Compound 6, 3,3′-(((1R,3S)-cyclohexane-1,3-diyl)bis(ethane-2,1-diyl))dibenzimidamide] showed an IC50 [1] of 0.33 µM.

With `Nc1nccc2ccc(CCCCCCCc3ccc4ccnc(N)c4c3)cc12` [Compound 7, 7,7′-(heptane-1,7-diyl)bis(isoquinolin-1-amine)] the IC50 [1] was 1.15 µM, the “synergistic effect with novobiocin” value [2] was “no synergistic effect” and the MIC [2] was 8.13 µM.

In the case of `N=C(N)c1ccc(CCCCCCCc2ccc(C3CCNC3)cc2)cc1` (stereo not drawn) [Compound 8, 4-(7-(4-(pyrrolidine-3-yl)phenyl)heptyl)benzimidamide], the IC50 [1] is reported as 1.92 µM, the “synergy with novobiocin as compared to pentamidine with novobiocin” value [2] is reported as “increased synergy” and the MIC [2] is reported as over 34.4 µM.

For `N=C(N)c1ccc(OCCCCCOc2ccc(C(=N)N)cc2)cc1` [Pentamidine, 1,5-bis(4-amidinophenoxy)pentane], the MIC [3] was 16 µg/mL (≈ 47 µM) and the MIC [4] was 64 µg/mL (≈ 188 µM).

In the case of `CO[C@H]1/C=C/O[C@@]2(C)Oc3c(C)c(O)c4c(O)c(c(/C=N/N5CCN(C)CC5)c(O)c4c3C2=O)NC(=O)/C(C)=C\C=C\[C@H](C)[C@H](O)[C@@H](C)[C@@H](O)[C@@H](C)[C@H](OC(C)=O)[C@@H]1C` [Rifampicin, reference compound], the MIC [5] is reported as over 12.5 µg/mL, the MIC [6] is reported as over 12.5 µg/mL and the MIC [7] is reported as 12.5 µg/mL. The MIC [8] was over 12.5 µg/mL, the MIC [9] was 6.25 µg/mL and the MIC [10] was 3.12 µg/mL. For the same molecule, the MIC [11] was over 12.5 µg/mL, the MIC [12] was 3.12 µg/mL and the MIC [13] was over 12.5 µg/mL. For the same molecule, the MIC [14] was over 12.5 µg/mL, the MIC [15] was over 12.5 µg/mL and the MIC [16] was 6.25 µg/mL. It also gave an MIC [17] of over 12.5 µg/mL, an MIC [18] of over 12.5 µg/mL and an MIC [19] of 3.12 µg/mL. For the same molecule, the MIC [20] was 6.25 µg/mL and the MIC [21] was over 12.5 µg/mL.

In the case of `CO[C@@H]1[C@@H](OC(N)=O)[C@@H](O)[C@H](Oc2ccc3c(O)c(NC(=O)c4ccc(O)c(CC=C(C)C)c4)c(=O)oc3c2C)OC1(C)C` [novobiocin, reference compound], the MIC [2] is reported as over 18.9 µM and the “MIC of novobiocin when FICI is calculated” value ([2]; value used for FICI calculation) is reported as 37.8 µM.
